Publication PMC6274419, “Synthesis and Anticancer Activities of Glycyrrhetinic Acid Derivatives” (Molecules, 2016)

Key:
[1] = system: MCF-7 cells; test: MTT cytotoxicity assay, MCF-7; type: cell-based, human; settings: MCF7; human breast cancer cell line MCF-7, MTT method, 24 h treatment, mean ± SD; read-out: IC50 MCF-7
Procedure: (§1) The anticancer activities of compounds 17–24, 41–56 against MCF-7, MDA-MB-231 and hTERT-RPE1 cells were determined in vitro by an MTT assay. […] The data was calculated and presented as IC50 values in Table 1.
(§2) The cytotoxicities of the compounds were evaluated by the MTT assay, which is based on the conversion of MTT to formazan crystals by mitochondrial dehydrogenases. […] The medium was incubated with 20 μL of 5 mg/mL MTT solution for 3 h in a humidified incubator containing 5% CO2. The purple coloured formazan crystals formed in the wells were dissolved in DMSO and their absorbances were measured at 570 nm with a microplate reader. Cell viability was expressed as a percentage of the value in control cultures.

[2] = system: MDA-MB-231 cells; test: MTT cytotoxicity assay, MDA-MB-231; type: cell-based, human; settings: human breast cancer cell line MDA-MB-231, MTT method, 24 h treatment, mean ± SD; read-out: IC50 MDA-MB-231
Procedure: The data was calculated and presented as IC50 values in Table 1.
as §2

[3] = system: hTERT-RPE1 cells; test: MTT cytotoxicity assay, hTERT-RPE1 normal cells; type: cell-based, human; settings: normal human retinal pigment epithelial cell line hTERT-RPE1, MTT method, 24 h treatment, mean ± SD; read-out: IC50 hTERT-RPE1
Procedure: as §1, §2

Row | melting point | SMILES | IC50 [1] | IC50 [2] | IC50 [3]
1 | 215 to 217 °C | COC(=O)/C=C/c1ccc(OC)c(OC(=O)[C@@]2(C)CC[C@]3(C)CC[C@]4(C)C(=CC(=O)[C@@H]5[C@@]6(C)CC[C@H](O)C(C)(C)[C@@H]6CC[C@]54C)[C@@H]3C2)c1 [Compound 21, Isoferulic acid methyl ester 3β-hydroxy-11-oxo-olean-12-en-30-oate] | 8.54 ± 0.67 µM | 7.31 ± 0.16 µM | 18.6 ± 0.54 µM
2 | 195 to 196 °C | CCOC(=O)/C=C/c1ccc(OC(=O)[C@@]2(C)CC[C@]3(C)CC[C@]4(C)C(=CC(=O)[C@@H]5[C@@]6(C)CC[C@H](O)C(C)(C)[C@@H]6CC[C@]54C)[C@@H]3C2)cc1 [Compound 20, trans-4-Hydroxycinnamic acid ethyl ester 3β-hydroxy-11-oxo-olean-12-en-30-oate] | 24.4 ± 1.36 µM | 14.5 ± 0.58 µM | 28.4 ± 0.87 µM
